Each block holds one compound with its values, some of them ahead of it.
Test system: 317291-083-R-J1-PDC complex spheroid growth
Experiment: Anticancer human tumor 317291-083-R-J1-PDC patient-derived soft tissue sarcoma cell line growth inhibition [Asc]
Conditions: for viability, T/C: stronger effect = lower value
Protocol: Multicellular complex tumor spheroid response to apoptosis pathway targeting inhibitors Alrizomadlin, Pelcitoclax, and Dasminapant in combination with a variety of drugs and investigational agents in selected tumor cell lines
The MDM2 inhibitor alrizomadlin, the Bcl-2/Bcl-xL inhibitor pelcitoclax, and the IAPs inhibitor dasminapant were evaluated both individually and in combination with standard of care and investigational anticancer small molecules within a complex spheroid model of solid tumors. . Complex spheroids include a stromal component modeled by human endothelial cells (HUVEC) and fibroblasts modeled by human mesenchymal stem cells (MSCs). The concentration ranges selected for each drug and investigational agent were based upon clinically achievable concentrations if the clinical Cmax of the agent was known.
Compounds. The drugs and investigational agents: alrizomadlin (APG-115; NSC831270), pelcitoclax (APG-1252; NSC835773), dasminapant (APG-1387;NSC834197), TAK-243 (NSC785004), copanlisib (NSC809693), olaparib (NSC753686), talazoparib (NSC767125), cobimetinib (NSC 768068), eltanexor (KPT-8602, NSC 794443), abemaciclib (NSC 768073), sotorasib (NSC818433), adagrasib (NSC 831453), MRTX-1133 (NSC 836407), Iadademestat (ORY1001, NSC 806812), and RMC-4630 (NSC839698), were obtained from the NCI Developmental Therapeutics Program Chemical Repository. The FDA-approved anticancer drug set is available from the Developmental Therapeutics Program at https://dtp.cancer.gov/organization/dscb/obtaining/available plates.htm. […] The stock solutions were prepared in dimethyl sulfoxide (DMSO, Sigma-Aldrich, St. Louis, MO, cat. D2650) at 800-fold the tested concentration and stored at -70 degrees C prior to their use. All drugs and investigational agents were tested over a range starting from a high concentration at or near the clinical Cmax and decreasing in half-log increments. If the clinical Cmax for an agent had not been determined, the highest concentration tested was 10 microM.
The patient-derived cancer (PDC) cell lines include five colon adenocarcinomas: 186277-243-T-J2-PDC, 616215-338-R-J1-PDC, 439559-082-T-J2-PDC, 463943-066-T-J2-PDC, and 519858-162-T-J1-PDC; three pancreatic carcinomas: 323965-272-R-J2-PDC, 521955-158-R6-J3-PDC, and 521955-158-R2-J5-PDC; two uterine sarcomas: 327498-152-R-J2-PDC and 993429-296-R-J1-PDC; two rhabdomyosarcomas: 755483-174-R-J1-PDC and 772245-204-R-J1-PDC; two soft tissue sarcomas: 126254-015-R-J1-PDC and 494315-158-R-J1-PDC; two malignant fibrous histiocytomas: 317291-083-R-J1-PDC and 596521-263-R-J1-PDC; two breast carcinomas: 171881-019-R-J1-PDC and 885512-296-R-J2-PDC; and one ovarian carcinoma: 6556581-035-R-J-PDC were obtained from the NCI PDMR, (https://pdmr.cancer.gov). The established cell lines HSSY-2 synovial sarcoma (RRID:CVCL 8719), SYO-1 synovial sarcoma (RRID:CVCL_7146), MPNST malignant peripheral neural sheath tumor were obtained from the Sloan Kettering Institute. The following established cell lines were purchased from the American Type Culture Collection (ATCC, Manassas, VA), Sor the received from the NCI repository:, PANC-1 pancreatic carcinoma (CRL-1469, RRID:CVCL_0480), OVCAR-5 ovarian carcinoma (RRID:CVCL_1628), OVCAR-8 ovarian carcinoma (RRID:CVCL_1629), , MCF-7 breast carcinoma (CRL-12584, RRID:CVCL_0031), MDA-MB-231 breast carcinoma (CRL-12532, RRID:CVCL_0062), NCI-H1876 small cell lung carcinoma (CRL-5902, RRID:CVCL_1503), NCI-H510A small cell lung carcinoma (HTB-184, RRID:CVCL_1565), NCI-H1417 (CRL-5869, RRID:CVCL_1469), and NCI-H196 small cell lung carcinoma (CRL-5823, RRID:CVCL_1509). Dr. Peter Houghton (Greehey Children's Cancer Research Institute, University of Texas Health Science Center, San Antonio, TX) provided Rh-18 rhabdomyosarcoma (RRID:CVCL_1659). Pooled donor human umbilical vein endothelial cells (HUVEC, Lonza, cat. CC-2519) and human mesenchymal stem cells (hMSC, Lonza, cat. PT-2501) were purchased from Lonza (Walkersville, MD).
Cell Culture. […]
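Also: compound exposure lasted seven days after spheroids formed for three days.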
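For viability, T/C in this document: 100% = DMSO vehicle control wells.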

IC50 (curve of first compound, second compound 0.00316 µM): 2.21 µM
IC50 (curve of first compound, second compound 0.01 µM): 1.15 µM
IC50 (curve of first compound, second compound 0.0316 µM): 1.96 µM
IC50 (curve of first compound, second compound 0.1 µM): 0.0893 µM
IC50 (curve of first compound, second compound 0.316 µM): < 0.00949 µM
IC50 (curve of first compound, second compound 1 µM): < 0.00949 µM
SMILES: Cc1nc(N2CCC3(CC2)COC(C)C3N)c(CO)nc1Sc1ccnc(N)c1Cl (stereo unspecified) + CNC(C)C(=O)NC1CN(S(=O)(=O)c2cccc(S(=O)(=O)N3CCC4CCC(C(=O)NC(c5ccccc5)c5ccccc5)N4C(=O)C(NC(=O)C(C)NC)C3)c2)CCC2CCC(C(=O)NC(c3ccccc3)c3ccccc3)N2C1=O
viability, T/C (second compound 0.00316 µM, first compound 0.00949 µM): 93.4%
viability, T/C (second compound 0.00316 µM, first compound 0.03 µM): 70.8%
viability, T/C (second compound 0.00316 µM, first compound 0.0949 µM): 80.5%
viability, T/C (second compound 0.00316 µM, first compound 0.3 µM): 66.7%
viability, T/C (second compound 0.00316 µM, first compound 0.949 µM): 70.2%
viability, T/C (second compound 0.00316 µM, first compound 3 µM): 41.9%
viability, T/C (second compound 0.01 µM, first compound 0.00949 µM): 75.5%
viability, T/C (second compound 0.01 µM, first compound 0.03 µM): 90.1%
viability, T/C (second compound 0.01 µM, first compound 0.0949 µM): 67.8%
viability, T/C (second compound 0.01 µM, first compound 0.3 µM): 70%
viability, T/C (second compound 0.01 µM, first compound 0.949 µM): 52.2%
viability, T/C (second compound 0.01 µM, first compound 3 µM): 36.2%
viability, T/C (second compound 0.0316 µM, first compound 0.00949 µM): 65.2%
viability, T/C (second compound 0.0316 µM, first compound 0.03 µM): 72.8%
viability, T/C (second compound 0.0316 µM, first compound 0.0949 µM): 71.3%
viability, T/C (second compound 0.0316 µM, first compound 0.3 µM): 63.8%
viability, T/C (second compound 0.0316 µM, first compound 0.949 µM): 53.2%
viability, T/C (second compound 0.0316 µM, first compound 3 µM): 47.2%
viability, T/C (second compound 0.1 µM, first compound 0.00949 µM): 70.3%
viability, T/C (second compound 0.1 µM, first compound 0.03 µM): 51.2%
viability, T/C (second compound 0.1 µM, first compound 0.0949 µM): 54.1%
viability, T/C (second compound 0.1 µM, first compound 0.3 µM): 39.8%
viability, T/C (second compound 0.1 µM, first compound 0.949 µM): 39.9%
viability, T/C (second compound 0.1 µM, first compound 3 µM): 27.6%
viability, T/C (second compound 0.316 µM, first compound 0.00949 µM): 43.5%
viability, T/C (second compound 0.316 µM, first compound 0.03 µM): 39.8%
viability, T/C (second compound 0.316 µM, first compound 0.0949 µM): 38.1%
viability, T/C (second compound 0.316 µM, first compound 0.3 µM): 37.7%
viability, T/C (second compound 0.316 µM, first compound 0.949 µM): 32.4%
viability, T/C (second compound 0.316 µM, first compound 3 µM): 22.8%
viability, T/C (second compound 1 µM, first compound 0.00949 µM): 29.8%
viability, T/C (second compound 1 µM, first compound 0.03 µM): 22.5%
viability, T/C (second compound 1 µM, first compound 0.0949 µM): 29.8%
viability, T/C (second compound 1 µM, first compound 0.3 µM): 23.1%
viability, T/C (second compound 1 µM, first compound 0.949 µM): 18.5%
viability, T/C (second compound 1 µM, first compound 3 µM): 19.3%

IC50 (compound alone, run of 11/07/2022): > 10 µM
SMILES: Cc1c(S(C)(=O)=O)c(-c2cc(F)cc(N3CCN(c4ccc(NS(=O)(=O)c5ccc(NC(CCN6CCC(C(=O)OCCCP(=O)(O)O)CC6)CSc6ccccc6)c(S(=O)(=O)C(F)(F)F)c5)cc4)CC3)c2)c(-c2ccc(Cl)cc2)n1C(C)C (stereo unspecified)
viability, T/C (compound 0.0316 µM): 98% [middle of 7 runs]
viability, T/C (compound 0.316 µM): 93.2% [middle of 7 runs]
viability, T/C (compound 3.16 µM): 81% [middle of 7 runs]
